One may read the IC50 as the concentration that gives 50% inhibition. Read a high IC50 as weaker potency.

For the experiment, the system named is HBsAg. The experiment can be described thus: HBsAg assay (chemiluminescence immunoassay of secreted HBsAg). The experiment is classed as cell-based, HBV. Conditions: Hepatitis B virus, HepG2.2.15, HBsAg secretion, HepG2.2.15 cells, CLIA of culture supernatant. In short, it runs like this:
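HepG2.2.15 cells, in duplicate, treated with three-fold serial compound dilutions (1% DMSO final); secreted HBsAg in supernatant quantified by chemiluminescence immunoassay; IC50 is the concentration reducing HBsAg secretion by 50% versus the DMSO control.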

For the compound `CC1c2cnc(-c3ccccn3)nc2CCN1c1cc(N2CCC(C(=O)O)C2)cc(F)n1` (stereo not shown) [Example 68, 1-[2-fluoro-6-[5-methyl-2-(2-pyridyl)-7,8-dihydro-5H-pyrido[4,3-d]pyrimidin-6-yl]-4-pyridyl]pyrrolidine-3-carboxylic acid], half-maximal inhibition (IC50) was put at 215 nM.

`CC(=O)N1CCN(c2cc(F)nc(N3CCc4nc(-c5ccccn5)ncc4C3C)c2)CC1` (stereo not shown) [Example 69, 1-[4-[2-fluoro-6-[5-methyl-2-(2-pyridyl)-7,8-dihydro-5H-pyrido[4,3-d]pyrimidin-6-yl]-4-pyridyl]piperazin-1-yl]ethanone] yielded an IC50 of 14 nM.

With `CC(=O)N1CCN(c2cc(F)cc(N3CCc4nc(-c5ccccn5)ncc4C3C)n2)CC1` (stereo not shown) [Example 70, 1-[4-[4-fluoro-6-[5-methyl-2-(2-pyridyl)-7,8-dihydro-5H-pyrido[4,3-d]pyrimidin-6-yl]-2-pyridyl]piperazin-1-yl]ethanone], it took 16 nM to reach half-maximal inhibition (IC50).

Consider `CC1c2cnc(-c3ccccn3)nc2CCN1c1cc(N2CCN(S(C)(=O)=O)CC2)cc(F)n1` (stereo not shown) [Example 71, 6-[6-fluoro-4-(4-methylsulfonylpiperazin-1-yl)-2-pyridyl]-5-methyl-2-(2-pyridyl)-7,8-dihydro-5H-pyrido[4,3-d]pyrimidine], for which half-maximal inhibition (IC50) was put at 8 nM. This IC50 lies about 2-fold lower than the previous one.

The compound `CC1c2cnc(-c3ccccn3)nc2CCN1c1cc(F)cc(N2CCN(S(C)(=O)=O)CC2)n1` (stereo not shown) [Example 72, 6-[4-fluoro-6-(4-methylsulfonylpiperazin-1-yl)-2-pyridyl]-5-methyl-2-(2-pyridyl)-7,8-dihydro-5H-pyrido[4,3-d]pyrimidine] yielded an IC50 of 58 nM.

`CC1c2cnc(-c3ccccn3)nc2CCN1c1cc(N2CCC(C(N)=O)CC2)cc(F)n1` (stereo not shown) [Example 73, 1-[2-fluoro-6-[5-methyl-2-(2-pyridyl)-7,8-dihydro-5H-pyrido[4,3-d]pyrimidin-6-yl]-4-pyridyl]piperidine-4-carboxamide] yielded an IC50 of 10 nM.

In the case of `CC1c2cnc(-c3ccccn3)nc2CCN1c1cc(F)cc(N2CCC(C(N)=O)CC2)n1` (stereo not shown) [Example 74, 1-[4-fluoro-6-[5-methyl-2-(2-pyridyl)-7,8-dihydro-5H-pyrido[4,3-d]pyrimidin-6-yl]-2-pyridyl]piperidine-4-carboxamide], the concentration for half-maximal inhibition (IC50) came out at 19 nM.

With `CC1c2cnc(-c3ccccn3)nc2CCN1c1cc(N2CCCC(C(N)=O)C2)cc(F)n1` (stereo not shown) [Example 75, 1-[2-fluoro-6-[5-methyl-2-(2-pyridyl)-7,8-dihydro-5H-pyrido[4,3-d]pyrimidin-6-yl]-4-pyridyl]piperidine-3-carboxamide], it took 39 nM to reach half-maximal inhibition (IC50). This IC50 lies about 2.1-fold higher than the previous one.

As to `CC1c2cnc(-c3ccccn3)nc2CCN1c1cc(F)cc(N2CCCC(C(N)=O)C2)n1` (stereo not shown) [Example 76, 1-[4-fluoro-6-[5-methyl-2-(2-pyridyl)-7,8-dihydro-5H-pyrido[4,3-d]pyrimidin-6-yl]-2-pyridyl]piperidine-3-carboxamide], the IC50 was determined as 44 nM.

`CC1c2cnc(-c3ncccn3)nc2CCN1c1cc(NS(=O)(=O)c2ccccc2)cc(F)n1` (stereo not shown) [Example 77, N-[2-fluoro-6-(5-methyl-2-pyrimidin-2-yl-7,8-dihydro-5H-pyrido[4,3-d]pyrimidin-6-yl)-4-pyridyl]benzenesulfonamide] gave an IC50 of 554 nM.

The compound `CC1c2cnc(-c3ncccn3)nc2CCN1c1cc(F)cc(NS(=O)(=O)c2ccccc2)n1` (stereo not shown) [Example 78, N-[4-fluoro-6-(5-methyl-2-pyrimidin-2-yl-7,8-dihydro-5H-pyrido[4,3-d]pyrimidin-6-yl)-2-pyridyl]benzenesulfonamide] gave an IC50 of 263 nM.

In the case of `CC1c2cnc(-c3ccccn3)nc2CCN1c1cc(NCC(F)F)cc(F)n1` (stereo not shown) [Example 79], the half-inhibitory concentration (IC50) is 71 nM.

Take `CC1c2cnc(-c3ccccn3)nc2CCN1c1cc(F)cc(NCC(F)F)n1` (stereo not shown) [Example 80, N-(2,2-difluoroethyl)-4-fluoro-6-[5-methyl-2-(2-pyridyl)-7,8-dihydro-5H-pyrido[4,3-d]pyrimidin-6-yl]pyridin-2-amine]: the half-inhibitory concentration (IC50) amounted to 124 nM.

`CC1c2cnc(-c3ncccn3)nc2CCN1c1cc(F)cc(N2CC(C(N)=O)C2)n1` (stereo not shown) [Example 81, 1-[4-fluoro-6-(5-methyl-2-pyrimidin-2-yl-7,8-dihydro-5H-pyrido[4,3-d]pyrimidin-6-yl)-2-pyridyl]azetidine-3-carboxamide] displayed a 50% inhibitory concentration (IC50) of 206 nM.

With `CC1c2cnc(-c3ncccn3)nc2CCN1c1cc(N2CC(C(N)=O)C2)cc(F)n1` (stereo not shown) [Example 82, 1-[2-fluoro-6-(5-methyl-2-pyrimidin-2-yl-7,8-dihydro-5H-pyrido[4,3-d]pyrimidin-6-yl)-4-pyridyl]azetidine-3-carboxamide], the half-maximal inhibitory concentration (IC50) was determined as 149 nM.

Compound `COC1CCN(c2cc(F)nc(N3CCc4nc(-c5ccccn5)ncc4C3C)c2)C1` (stereo not shown) [Example 83, 6-[6-fluoro-4-(3-methoxypyrrolidin-1-yl)-2-pyridyl]-5-methyl-2-(2-pyridyl)-7,8-dihydro-5H-pyrido[4,3-d]pyrimidine] returned an IC50 of 20 nM.

Consider `COC1CCN(c2cc(F)cc(N3CCc4nc(-c5ccccn5)ncc4C3C)n2)C1` (stereo not shown) [Example 84, 6-[4-fluoro-6-(3-methoxypyrrolidin-1-yl)-2-pyridyl]-5-methyl-2-(2-pyridyl)-7,8-dihydro-5H-pyrido[4,3-d]pyrimidine], for which the IC50 stood at 23 nM. The IC50 values of the last two compounds are within 1.5-fold of each other.

`CC1c2cnc(-c3ccccn3)nc2CCN1c1cc(F)cc(N2CCC(C(=O)NS(C)(=O)=O)C2)n1` (stereo not shown) [Example 85, 1-[4-fluoro-6-[5-methyl-2-(2-pyridyl)-7,8-dihydro-5H-pyrido[4,3-d]pyrimidin-6-yl]-2-pyridyl]-N-methylsulfonyl-pyrrolidine-3-carboxamide]: the IC50 was found to be 264 nM.

The compound `CC1c2cnc(-c3ccccn3)nc2CCN1c1cc(N2CCC(C(=O)NS(C)(=O)=O)C2)cc(F)n1` (stereo not shown) [Example 86, 1-[2-fluoro-6-[5-methyl-2-(2-pyridyl)-7,8-dihydro-5H-pyrido[4,3-d]pyrimidin-6-yl]-4-pyridyl]-N-methylsulfonyl-pyrrolidine-3-carboxamide] yielded an IC50 of 1240 nM.

With `COCCS(=O)(=O)N1CCN(c2cc(F)nc(N3CCc4nc(-c5ncccn5)ncc4C3C)c2)CC1` (stereo not shown) [Example 87, 6-[6-fluoro-4-[4-(2-methoxyethylsulfonyl)piperazin-1-yl]-2-pyridyl]-5-methyl-2-pyrimidin-2-yl-7,8-dihydro-5H-pyrido[4,3-d]pyrimidine], the IC50 stood at 5 nM.

`CC1c2cnc(-c3ncccn3)nc2CCN1c1cc(N2CCC(NS(C)(=O)=O)CC2)cc(F)n1` (stereo not shown) [Example 88, N-[1-[2-fluoro-6-(5-methyl-2-pyrimidin-2-yl-7,8-dihydro-5H-pyrido[4,3-d]pyrimidin-6-yl)-4-pyridyl]-4-piperidyl]methanesulfonamide] registered an IC50 of 18 nM.

As to `CC1c2cnc(-c3ncccn3)nc2CCN1c1cc(F)cc(N2CCC(NS(C)(=O)=O)CC2)n1` (stereo not shown) [Example 89, N-[1-[4-fluoro-6-(5-methyl-2-pyrimidin-2-yl-7,8-dihydro-5H-pyrido[4,3-d]pyrimidin-6-yl)-2-pyridyl]-4-piperidyl]methanesulfonamide], the IC50 was determined as 12 nM. Against the preceding compound, the IC50 is about 1.5-fold lower.

The compound `CCS(=O)(=O)N1CCN(c2cc(F)cc(N3CCc4nc(-c5ncccn5)ncc4C3C)n2)CC1` (stereo not shown) [Example 91, 6-[6-(4-ethylsulfonylpiperazin-1-yl)-4-fluoro-2-pyridyl]-5-methyl-2-pyrimidin-2-yl-7,8-dihydro-5H-pyrido[4,3-d]pyrimidine] showed an IC50 of 12 nM.

`CC1c2cnc(-c3ncccn3)nc2CCN1c1cc(F)cc(N2CC(C(=O)O)C(C)(C)C2)n1` (stereo not shown) [Example 92, 1-[4-fluoro-6-(5-methyl-2-pyrimidin-2-yl-7,8-dihydro-5H-pyrido[4,3-d]pyrimidin-6-yl)-2-pyridyl]-4,4-dimethyl-pyrrolidine-3-carboxylic acid] came in with an IC50 of 139 nM.

For `CC1c2cnc(-c3ncccn3)nc2CCN1c1cc(N2CCN(CC(=O)O)CC2)cc(F)n1` (stereo not shown) [Example 94, 2-[4-[2-fluoro-6-(5-methyl-2-pyrimidin-2-yl-7,8-dihydro-5H-pyrido[4,3-d]pyrimidin-6-yl)-4-pyridyl]piperazin-1-yl]acetic acid], the 50% inhibitory concentration (IC50) was 8860 nM.

In turn, `CC1c2cnc(-c3ncccn3)nc2CCN1c1cc(F)cc(N2CCN(CC(=O)O)CC2)n1` (stereo not shown) [Example 95, 2-[4-[4-fluoro-6-(5-methyl-2-pyrimidin-2-yl-7,8-dihydro-5H-pyrido[4,3-d]pyrimidin-6-yl)-2-pyridyl]piperazin-1-yl]acetic acid] returned an IC50 of 3780 nM.

With `CC1c2cnc(-c3ncccn3)nc2CCN1c1cc(NC2CCN(S(C)(=O)=O)CC2)cc(F)n1` (stereo not shown) [Example 96, 2-Fluoro-6-(5-methyl-2-pyrimidin-2-yl-7,8-dihydro-5H-pyrido[4,3-d]pyrimidin-6-yl)-N-(1-methylsulfonyl-4-piperidyl)pyridin-4-amine], half-maximal inhibition (IC50) required 125 nM.

In turn, `CC1c2cnc(-c3ncccn3)nc2CCN1c1cc(F)cc(N2CCN(S(C)(=O)=O)C(C)(C)C2)n1` (stereo not shown) [Example 99, 6-[6-(3,3-dimethyl-4-methylsulfonyl-piperazin-1-yl)-4-fluoro-2-pyridyl]-5-methyl-2-pyrimidin-2-yl-7,8-dihydro-5H-pyrido[4,3-d]pyrimidine] yielded an IC50 of 26 nM.

On to `CC1c2cnc(-c3ncccn3)nc2CCN1c1cc(N2CCN(S(C)(=O)=O)C(C)(C)C2)cc(F)n1` (stereo not shown) [Example 100, 6-[4-(3,3-dimethyl-4-methylsulfonyl-piperazin-1-yl)-6-fluoro-2-pyridyl]-5-methyl-2-pyrimidin-2-yl-7,8-dihydro-5H-pyrido[4,3-d]pyrimidine], for which the midpoint of inhibition, the IC50, lay at 13 nM.

The compound `CC1c2cnc(-c3ncccn3)nc2CCN1c1cc(F)cc(N2CCN(CC(N)=O)CC2)n1` (stereo not shown) [Example 101, 2-[4-[4-fluoro-6-(5-methyl-2-pyrimidin-2-yl-7,8-dihydro-5H-pyrido[4,3-d]pyrimidin-6-yl)-2-pyridyl]piperazin-1-yl]acetamide] yielded an IC50 of 60 nM.

On to `CC1c2cnc(-c3ncccn3)nc2CCN1c1cc(N2CCN(CC(N)=O)CC2)cc(F)n1` (stereo not shown) [Example 102, 2-[4-[2-fluoro-6-(5-methyl-2-pyrimidin-2-yl-7,8-dihydro-5H-pyrido[4,3-d]pyrimidin-6-yl)-4-pyridyl]piperazin-1-yl]acetamide], for which it took 29 nM to reach half-maximal inhibition (IC50).

The values are drawn from US11104674B2 (Hoffmann-La Roche Inc., priority 2016, dated 2021).
